pIC50: −log10 of the molar value.
Columns and labels:
[1] = target: Cyclin-dependent kinase 2 (Homo sapiens, UniProt P24941); assay: Inhibition of human recombinant CDK2/cyclin A expressed in baculovirus-infected insect cells
[2] = Inhibition of starfish oocytes CDK1/cyclin B; design: species or system Marthasterias glacialis; conditions: oocyte
[3] = target: CDK9/cyclin T1 (Homo sapiens, UniProt P50750); assay: Inhibition of human recombinant CDK9/cyclin T expressed in baculovirus-infected insect cells
[4] = test system: HEK293; assay: Antiproliferative activity against human HEK293 cells after 48 hrs by MTS reduction assay; type: cell-based; conditions: HEK293, 48 h
[5] = test system: SH-SY5Y; assay: Antiproliferative activity against human SH-SY5Y cells after 48 hrs by MTS reduction assay; type: functional, cell-based
[6] = target: Cyclin-dependent kinase 7/ cyclin H (Homo sapiens, UniProt P50613); assay: Inhibition of human recombinant CDK7/cyclin H expressed in baculovirus-infected insect cells
[7] = target: Cyclin-dependent kinase 5/CDK5 activator 1 (Homo sapiens, UniProt Q00535)
Sequence of Cyclin-dependent kinase 5/CDK5 activator 1 (Q00535 whole entry): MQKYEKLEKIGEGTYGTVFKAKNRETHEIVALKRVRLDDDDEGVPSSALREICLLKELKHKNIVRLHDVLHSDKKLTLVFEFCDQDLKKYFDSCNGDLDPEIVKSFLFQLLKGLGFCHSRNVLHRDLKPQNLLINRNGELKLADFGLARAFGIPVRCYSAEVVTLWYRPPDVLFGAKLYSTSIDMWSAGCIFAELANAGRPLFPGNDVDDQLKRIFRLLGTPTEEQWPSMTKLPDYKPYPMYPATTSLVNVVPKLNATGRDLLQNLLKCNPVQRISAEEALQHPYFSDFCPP
Sequence of Cyclin-dependent kinase 5/CDK5 activator 1 (Q15078 whole entry, further chain): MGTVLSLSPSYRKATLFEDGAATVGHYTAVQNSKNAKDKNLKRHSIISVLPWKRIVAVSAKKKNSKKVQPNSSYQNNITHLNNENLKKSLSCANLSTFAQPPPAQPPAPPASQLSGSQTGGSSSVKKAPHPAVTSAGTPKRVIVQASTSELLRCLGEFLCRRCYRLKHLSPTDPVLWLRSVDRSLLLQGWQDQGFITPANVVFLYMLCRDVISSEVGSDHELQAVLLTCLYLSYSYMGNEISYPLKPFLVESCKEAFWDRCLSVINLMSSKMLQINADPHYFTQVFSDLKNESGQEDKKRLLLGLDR
Description: Inhibition of human recombinant CDK5/p25 expressed in Escherichia coli

Sequence of Cyclin-dependent kinase 7/ cyclin H (P51946 whole entry): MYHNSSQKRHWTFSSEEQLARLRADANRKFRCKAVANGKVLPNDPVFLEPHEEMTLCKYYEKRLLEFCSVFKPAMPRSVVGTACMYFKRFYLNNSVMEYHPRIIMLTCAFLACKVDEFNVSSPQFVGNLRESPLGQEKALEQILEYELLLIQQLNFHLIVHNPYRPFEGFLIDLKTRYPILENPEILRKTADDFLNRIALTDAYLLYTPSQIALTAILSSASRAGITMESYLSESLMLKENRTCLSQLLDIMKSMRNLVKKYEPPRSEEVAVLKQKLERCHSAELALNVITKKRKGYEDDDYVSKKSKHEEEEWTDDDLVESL
Sequence of Cyclin-dependent kinase 7/ cyclin H (P50613 whole entry): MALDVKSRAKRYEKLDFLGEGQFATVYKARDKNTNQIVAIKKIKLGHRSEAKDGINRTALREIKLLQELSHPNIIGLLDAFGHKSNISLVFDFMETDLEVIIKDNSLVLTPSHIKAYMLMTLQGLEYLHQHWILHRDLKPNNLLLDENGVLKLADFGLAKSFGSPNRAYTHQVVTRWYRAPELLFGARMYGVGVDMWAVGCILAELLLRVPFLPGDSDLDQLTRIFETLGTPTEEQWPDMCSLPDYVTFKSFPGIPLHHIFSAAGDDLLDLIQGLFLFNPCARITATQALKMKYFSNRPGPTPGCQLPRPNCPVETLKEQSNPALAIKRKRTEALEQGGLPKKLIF
Sequence of CDK9/cyclin T1 (O60563 whole entry): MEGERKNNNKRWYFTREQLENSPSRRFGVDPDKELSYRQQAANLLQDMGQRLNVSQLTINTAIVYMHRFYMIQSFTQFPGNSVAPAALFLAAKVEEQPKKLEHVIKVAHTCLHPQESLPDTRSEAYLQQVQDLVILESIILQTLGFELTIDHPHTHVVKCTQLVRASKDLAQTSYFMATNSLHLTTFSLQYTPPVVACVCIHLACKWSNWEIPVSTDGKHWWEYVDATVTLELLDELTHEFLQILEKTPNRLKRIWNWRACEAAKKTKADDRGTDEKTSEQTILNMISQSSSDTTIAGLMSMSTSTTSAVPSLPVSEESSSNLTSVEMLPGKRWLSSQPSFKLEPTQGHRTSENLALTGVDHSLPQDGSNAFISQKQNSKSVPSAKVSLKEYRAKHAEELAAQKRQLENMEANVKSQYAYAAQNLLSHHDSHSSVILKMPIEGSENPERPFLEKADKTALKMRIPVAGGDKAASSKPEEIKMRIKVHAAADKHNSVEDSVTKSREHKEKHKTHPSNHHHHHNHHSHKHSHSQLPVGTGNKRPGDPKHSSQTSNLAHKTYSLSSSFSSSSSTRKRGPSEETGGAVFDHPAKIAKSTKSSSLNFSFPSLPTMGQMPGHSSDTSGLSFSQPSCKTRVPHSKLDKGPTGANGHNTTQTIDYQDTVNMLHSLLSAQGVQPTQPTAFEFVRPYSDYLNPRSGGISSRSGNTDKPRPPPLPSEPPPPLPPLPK
Sequence of CDK9/cyclin T1 (P50750 whole entry): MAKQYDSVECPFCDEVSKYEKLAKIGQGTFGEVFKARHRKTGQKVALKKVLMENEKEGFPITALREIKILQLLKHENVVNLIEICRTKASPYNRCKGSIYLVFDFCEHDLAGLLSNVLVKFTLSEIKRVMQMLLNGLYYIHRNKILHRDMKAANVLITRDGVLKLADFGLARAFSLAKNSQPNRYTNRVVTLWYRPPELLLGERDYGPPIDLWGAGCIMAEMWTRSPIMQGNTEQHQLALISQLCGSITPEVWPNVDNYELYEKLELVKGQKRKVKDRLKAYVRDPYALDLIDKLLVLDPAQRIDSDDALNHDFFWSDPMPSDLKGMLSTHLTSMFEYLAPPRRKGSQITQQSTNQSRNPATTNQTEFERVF

SMILES	pIC50 [1]	pIC50 [2]	pIC50 [3]	pIC50 [4]	pIC50 [5]	pIC50 [6]	pIC50 [7]
CC[C@H](CO)Nc1nc(NCc2ccccc2)c2ncc(C(C)C)n2n1	6.66	6.40	6.70	4.57	4.81	6.22	6.49
CC[C@@H](CO)Nc1nc(NCc2ccccc2)n2ncc(C(C)C)c2n1				5.14	5.70		6.89
